One assay concerns AICD. Briefly: AICD by Western blot in SY5Y-APP695WT cells. It is filed as cell-based, human. The settings on record: AICD increase compared to chloroquine ([AICD]compound/[AICD]CQ) at 3 μM; mean of at least three experiments. From the text:
Antibodies. Primary antibodies used in this study for western-blot analysis included a homemade rabbit antiserum against the last 17 amino acids of human APP protein sequence, named APP-Cter-C17 (1/5000 in TBS-M). Anti-β-actin (1/10 000 in TBS-M) was obtained from Sigma. Anti-LC3B (1/2000 in TBS-BSA) and anti-p62/SQSTM1 (1/2000 in TBS-M) antibodies were purchased from Cell Signaling Technology. Secondary antibodies (peroxidase-labeled goat anti-rabbit IgG, 1/5000 or peroxidase-labeled horse anti-mouse IgG, 1/50000 in TBS-T) were obtained from Vector Laboratories.
Cell culture and treatment. The human neuroblastoma cell line SY5Y-APP^695WT was maintained in Dulbecco's modified Eagle medium (DMEM, high glucose, pyruvate—GIBCO by Life Technologies) supplemented with 10% foetal bovine serum, 2 mM L-glutamine, 1 mM non-essential amino acids and penicillin/streptomycin (GIBCO by Life Technologies) at 37° C. in a 5% CO2 humidified incubator. SY5Y-APP^695WT cells were maintained in 75 cm^2 culture flasks (Falcon) with supplemented DMEM medium until they reached 80% of confluence 24 h before treatment.
For drug treatment, cells were plated at a rate of 5·10^5 cells per well into 12-well plates (Falcon) and cultured with 1 mL supplemented DMEM cell medium for 24 h before drug exposure. The following day, cell medium was replaced with fresh medium containing drugs diluted at the indicated concentrations. Cells were treated for 24 h. At the end of treatments, the cell medium was collected and kept at −80° C. until use for dosage. Then, cells were rinsed once with PBS and extracted in 100 μL of Laemmli buffer (10 mM Tris, 20% glycerol and 2% Sodium dodecyl sulfate) using a cell-scraper. The cell lysate was further sonicated (30 pulses of 0.5 s, 60 Hz) for 5 min. Total protein concentration was determined using the Pierce BCA Protein Assay Kit (Thermo scientific) according to the manufacturer's instructions. Samples were stored at −80° C. until analysis.
Western Blot Analysis. Cell protein lysates were prepared for western-blot analysis by diluting the sample with 1 volume of NuPAGE® lithium dodecyl sulfate (LDS) 2× sample buffer supplemented with 20% NuPAGE® sample reducing agents (Invitrogen). Samples were heat 10 min at 100° C. 10 μg of total proteins per well were loaded onto a precast 4-12% Criterion XT Bis-Tris polyacrylamide gel (Bio-Rad) and electrophoresis was achieved after applying a tension of 150 V during 90 min using a Criterion electrophoresis Cell with the NuPAGE® MOPS SDS running buffer (1×). Proteins were transferred to a nitrocellulose membrane of […] pore size (G&E Healthcare) using the Criterion blotting system and applying a tension of 100 V for 45 min. To resolve proteins of low molecular weights such as carboxy-terminal fragments of APP, 12% Criterion XT Bis-Tris polyacrylamide gels (Bio-Rad) were used and electrophoresis was performed during 70 min at 150 V in a NuPAGE® MES SDS running buffer (1×). Proteins were transferred to a nitrocellulose membrane of 0.2 μm pore size (G&E Healthcare) at 100 V for 40 min. Molecular weights calibration was achieved using molecular weight markers (Novex and Magic Marks, Life Technologies). Protein transfer and quality were determined by a reversible Ponceau Red coloration (0.2% Xylidine Ponceau Red and 3% Trichloroacetic acid). Membranes were then blocked in 25 mM Tris-HCl pH 8.0, 150 mM NaCl, 0.1% Tween-20 (v/v) (TBS-T) and 5% (w/v) of skimmed milk (TBS-M) or 5% (w/v) of bovine serum albumin (TBS-BSA) depending on the antibody during 1 h. Membrane was rinsed three-times 10 min in TBS-T before incubation with the primary antibody overnight at 4° C. Membrane was rinsed 3 times 10 min with TBS-T and then incubated with the secondary antibody for 45 min at room temperature (RT). […] Quantifications of protein expression levels were performed with ImageJ Software (NIH). […]

In the next assay the test system is wild-type mice. Briefly: Y-Maze short-term memory test in wild-type mice. The settings on record: treated wild-type mice, 1 mg/kg in drinking water. It is filed as in vivo. As for the experimental part:
(§1) Thy-Tau22 transgenic colonies (C57Bl/6J genetic background) were obtained by crossing heterozygous males C57Bl/6J with WT females. All animals were housed in a pathogen-free facility at 5 to 6 animals per cage (Techniplast Cages 1284L), with ad libitum access to food and water in a 12/12-hour light-dark cycle and maintained under a constant temperature of 22° C. For treatment, animals were randomly distributed and compound 30 or 31 was provided in the drinking water at a final concentration of 1 mg/kg, ie […] for drinking solutions taking into account an average weight of 25 g/mouse drinking 4 mL/day. […] Food consumption and bodyweight were also assessed. In WT animals, a pilot study of drug treatment was performed for one month to establish the innocuousness of compound 30 and 31 treatments. Thy-Tau22 females were treated for 1 months, starting at 6 months of age.
Y-Maze: Short-term memory was tested on a Y-maze. The Y-maze consists of three enclosed arms surrounded by spatial clues. One arm was closed off during the learning phase. Each mouse was positioned in the Starting arm. Mice were allowed to explore the maze for 5 min. During 2 min of retention time, the closed arm was opened and the mouse was re-placed in the starting arm. […] Parameters—total distance travelled, velocity, alternation between the arms, entries into the new, starting or other arm—were measured over 5 minutes. […]

The test system of another assay is ThyTau22 mice. Briefly: Y-Maze short-term memory test in Thy-Tau22 mice. The class given is in vivo. The settings on record: ThyTau22 mice treated one month, 1 mg/kg in drinking water; compared with compound 30. On the procedure:
as §1, with “In WT animals, a pilot study of drug treatment was performed for one month to establish the innocuousness of compound 30 and 31 treatments. Thy-Tau22 females were treated for 1 months, starting at 6 months of age.” left out
Before any behavioral test, exploratory behavior and locomotion were evaluated in treated and untreated animals in an Openfield (OF) 25 cm×25 cm arena. […] Anxiety, which could interfere with the memory test, was evaluated using the elevated plus maze (EPM). […] Locomotion, distance, speed and velocity were measured, as well as the number of entries into each arm, time spent in open versus closed arms, percentage of open arm entries and time spent in the open arms during a 5 minutes test.
Y-Maze: Short-term memory was tested on a Y-maze. […] Parameters—total distance travelled, velocity, alternation between the arms, entries into the new, starting or other arm—were measured over 5 minutes. […]

SMILES strings stand for the structures.

`CN(C)Cc1ccccc1-c1ccc(NCCCN2CCCCC2)c(OCCN2CCCCC2)c1` [Compound 30, 4-(2-[(Dimethylamino)methyl]phenyl)-2-[2-(piperidin-1-yl)ethoxy]-N-[3-(piperidin-1-yl)propyl]aniline]: the “AICD vs CQ (3 μM)” value in the assay with AICD was found to be 3.6.
As for `CN(C)Cc1ccccc1-c1ccc(NCCCN2CCCCC2)c(OCCC2CCCCC2)c1` [Compound 31, 3-(2-cyclohexylethoxy)-2′-((dimethylamino)methyl)-N-(3-(piperidin-1-yl)propyl)-[1,1′-biphenyl]-4-amine], the Y-Maze behavioral task entry in the assay with wild-type mice is “succeed in the Y-Maze behavioral task”. Besides, in the assay with AICD, the “AICD vs CQ (3 μM)” value was 0.1. For the same molecule, the “short memory preservation at the Y-Maze task” value in the assay with ThyTau22 mice was “higher short memory preservation”.

These data come from patent US20210230131A1, “POLYAMINO BIARYL COMPOUNDS AND THEIR USE” (INSERM (INSTITUT NATIONAL DE LA SANTÉ ET DE LA RECHERCHE …, priority 2018, published 2021).
